Calls of active or inactive are those of the source.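 How the source made its calls: active means growth-inhibition EC50 no more than tenfold above the top tested dose; inconclusive means flat fit between 30% and 70% inhibition, or unreliable fit; inactive means EC50 more than tenfold above the top tested dose.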
system: E. coli NEB5alpha growth, BacTiter-Glo luminescence, 4 h; test: Escherichia coli growth inhibition, dose response, counter-screen for MEX-5/POS-1 RNA-binding inhibitor project, luminescence, NEB5alpha (AID 1959);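 further: pUC19-transformed ampicillin-resistant cells grown in LB with ampicillin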

Compound	EC50
Cc1cc(/C=C2\C(=O)NC(=O)N(c3ccc(Cl)cc3)C2=O)c(C)n1-c1cccc(C(=O)O)c1	> 11 µM (inactive)
O=C(CNS(=O)(=O)c1ccc([N+](=O)[O-])cc1)N/N=C/c1ccc(O)cc1O	> 11 µM (inactive)
O=C(NCc1ccncc1)C(=O)N/N=C/c1ccccn1	> 11 µM (inactive)
Cc1ccc(CN(C)C(=O)CC2C(=O)NCCN2CC2CCCCC2)cc1 (centres undefined)	> 11 µM (inactive)
CCOc1cc(/C=C/c2cccc[n+]2C)ccc1OCC(=O)Nc1ccc(C)cc1	> 11 µM (inactive)
COc1ccc(N2C(=O)/C(=C/c3ccc(C)o3)C(=O)NC2=S)c(OC)c1	> 11 µM (inactive)
COc1ccc2nc3ccccc3nc2c1NC(=O)c1ccc(Cl)cc1Cl	> 11 µM (inactive)
Cc1ccc(N2C(=O)/C(=C/c3ccc(CN(CCC#N)S(C)(=O)=O)o3)C(=O)NC2=S)cc1	> 11 µM (inactive)
COc1ccc(C2C(C(=O)c3cccs3)=C(O)C(=O)N2c2nncs2)cc1 (centres undefined)	> 11 µM (inactive)
CCOC(=O)/C(C#N)=C/c1cc2ccccc2nc1N1CCCCC1	> 11 µM (inactive)
N#CC(C#N)=Cc1ccc(-c2ccccc2)o1	> 11 µM (inactive)
COC(=O)[C@H](CCSC)NC(=O)NC1CCN(Cc2ccccc2)CC1	> 11 µM (inactive)
CCCCCCCCCCCCCCCCn1cc[n+](C)c1	9.41 µM
Cc1ccc(/C=C2\C(=O)NC(=O)N(CC3CCCO3)C2=O)s1 (centres undefined)	> 11 µM (inactive)
CCN1C(=O)/C(=C\c2cccs2)C(C(=O)OC)=C1C	> 11 µM (inactive)
COc1ccc(OC)c(C2=C/C(=C/c3ccccn3)C(=O)O2)c1	> 11 µM (inactive)
CCOc1ccc(Br)cc1S(=O)(=O)NC(=O)c1ccccc1	> 11 µM (inactive)
COC(=O)CCCC1=CC2=CC(=O)C(C)(OC(=O)c3ccc(Cl)nc3)C(=O)C2=CO1 (centres undefined)	> 11 µM (inactive)
CC(=O)Nc1cccc(Oc2nc(-c3ccccn3)nc3ccccc23)c1	> 11 µM (inactive)
CN(C)CCCN(C(=O)/C=C/c1cccs1)c1nc2ccc(F)cc2s1	> 11 µM (inactive)
O=C(O)c1ccc2c3c(ncnc13)-c1ccccc1C2=O	> 11 µM (inactive)
Cn1c(=O)[nH]c(=O)c2c1nc(N/N=C/C(Br)=C/c1ccccc1)n2CCO	> 11 µM (inactive)
Cn1c(O)c(/C=C2\C=c3ccccc3=NC2=O)c(=O)n(C)c1=O	> 11 µM (inactive)
CC1=NOC(=O)/C1=C\c1ccc2c(c1)OCO2	> 11 µM (inactive)

Compound	EC50
Cc1ccc(/C=C2/C(=O)NC(=O)N(CCc3ccc(F)cc3)C2=O)o1	> 11 µM (inactive)
CCCC[n+]1ccn(C2=C([O-])c3ccccc3C(=O)/C2=N\S(=O)(=O)c2ccc(Cl)cc2)c1	> 11 µM (inactive)
Cc1cc(/C=C2\C(=O)NC(=O)N(c3ccccc3)C2=O)c(C)n1-c1ccc(C(=O)O)c(Cl)c1	> 11 µM (inactive)
Cc1cc(C)nc(NNC2=CC(=O)CC(C)(C)C2)n1	> 11 µM (inactive)
N#C/C(=C/c1ccc(CNS(=O)(=O)c2ccccc2)o1)C(=O)NCc1ccccc1	> 11 µM (inactive)
COC(=O)c1ccc(-n2c(C)cc(/C=N/n3cnnc3)c2C)cc1	> 11 µM (inactive)
O=S(=O)(NNC(=S)Nc1ccc(S(=O)(=O)Nc2ncccn2)cc1)c1ccc(Br)cc1	> 11 µM (inactive)
COc1ccc(/C=c2\sc3nc(-c4ccccc4OC)nn3c2=O)c(OC)c1	> 11 µM (inactive)
CCOC(=O)c1c2c3c(cccc3n(C)c1=O)C(=O)c1ccccc1-2	> 11 µM (inactive)
COc1c(O)cccc1[C@@H](O)C1CCN(CCc2ccc(F)cc2)CC1	> 11 µM (inactive)
COC(=O)c1ccc(-n2c(C)cc(C(=O)CCl)c2C)cc1	> 11 µM (inactive)
CCOCCCn1c(=NC(C)=O)c(C#N)cc2c(=O)n3ccccc3nc21	> 11 µM (inactive)
CC1=CC(C)(C)N2C(=O)C3(C(C#N)=C(N)OC4=C3C(=O)CC(C)(C)C4)c3c(C)c(C)cc1c32 (centres undefined)	> 11 µM (inactive)
Cc1nn(-c2ccccc2)c(N2CCCC2)c1/C=C1\N=C(c2ccc(F)cc2)OC1=O	> 11 µM (inactive)
O=C1/C(=C/c2ccc(Br)cc2)Oc2cc(O)ccc21	> 11 µM (inactive)
CCn1nc(C)c(/C=C2\CCCC3=C2OC(N)=C(C#N)C3c2c(C)nn(CC)c2C)c1C (centres undefined)	> 11 µM (inactive)
CC(=O)c1sc2nc(-c3cccs3)cc(C(F)(F)F)c2c1N	> 11 µM (inactive)
CCC(=NCCCN(C)C)c1c(O)n(-c2ccc(OC)cc2)c(=O)[nH]c1=O	> 11 µM (inactive)
Cc1ccc(N=Nc2[nH]c3ccccc3c2O)cc1	> 11 µM (inactive)
S=C1NC2(CCS1)Oc1ccccc1C1CC(c3ccccc3)=NN12 (centres undefined)	> 11 µM (inactive)
O=C(c1ccccc1)[C@@H]1[C@@H]2C(=O)N(c3ccc(F)cc3)C(=O)[C@@H]2C2CCCN21 (some centres undefined)	> 11 µM (inactive)
CCOc1cc2c(cc1/C=C(/C#N)c1ccc(C(=O)O)cc1)OCO2	> 11 µM (inactive)
CCOC(=O)c1ccc(CC(=O)c2ccc(O)c(O)c2O)o1	> 11 µM (inactive)
CCOc1cc(/C=C2\C(=O)NC(=O)N(CCc3ccc(F)cc3)C2=O)ccc1O	> 11 µM (inactive)

Compound	EC50
O=C(/C=C/c1c(Cl)cccc1Cl)N1CCOCC1	> 11 µM (inactive)
CCOc1cc(/C=C2\C(=N)N3N=C(S(C)(=O)=O)SC3=NC2=O)ccc1OCCOc1cccc(OC)c1	> 11 µM (inactive)
O=C(NC1CC1)C1Nc2ccc(OC(F)(F)F)cc2C2C=CCC12 (centres undefined)	> 11 µM (inactive)
COc1cc(N=Cc2c(O)c3ccccc3oc2=O)c(OC)cc1Cl	> 11 µM (inactive)
O=C1NC(=O)C(=Cc2ccc(-c3ccc(S(=O)(=O)N4CCOCC4)cc3)o2)C(=O)N1	> 11 µM (inactive)
Oc1[nH]c2ccccc2c1N=Nc1ccc(F)cc1	> 11 µM (inactive)
O=[N+]([O-])c1cc(-c2ccc([As](=O)(O)O)cc2)ccc1[As](=O)(O)O	> 11 µM (inactive)
Cc1ccc(NC(=O)CN2C(=O)S/C(=C\c3cc(C)n(-c4cccc(C(=O)O)c4)c3C)C2=O)cc1	> 11 µM (inactive)
Cc1nc2ccccc2c2oc(C(=O)Nc3ccc4c(c3)OCCO4)cc12	> 11 µM (inactive)
CCC1(c2ccccc2)NC(=O)N(CC(=O)NCc2ccc(F)cc2)C1=O (centres undefined)	> 11 µM (inactive)
Cc1oc(/N=C/c2ccc(O)cc2O)c(C#N)c1C	> 11 µM (inactive)
Cc1ccc(NC(=O)CN2C(=O)S/C(=C\c3cccn3-c3cccc(C(=O)O)c3)C2=O)cc1C	> 11 µM (inactive)
CCOC(=O)c1c(-n2c(C)cc(/C=C3/C(=O)NC(=O)N(CC)C3=O)c2C)sc2c1CCCC2	> 11 µM (inactive)
CCOn1c(=O)c(-c2cc3ccccc3o2)[n+]([O-])c2ccccc21	> 11 µM (inactive)
CCc1cc(C(=O)Nc2ccc(OC)nc2)sc1C	> 11 µM (inactive)
Cc1ccc(C2c3sc(=O)[nH]c3SC3C(=O)NC(=O)C32)cc1 (centres undefined)	> 11 µM (inactive)
O=c1cc(-c2ccc(O)c(O)c2)oc2cc(O)cc(O)c12	> 11 µM (inactive)
Cc1ccn2c(=O)nc(SCC(=O)Nc3cc(C)on3)nc2c1	> 11 µM (inactive)
Nc1nonc1C(=O)NCCN=Cc1cc(Cc2ccccc2)cc(Br)c1O	> 11 µM (inactive)
CCOC(=O)c1c(NC(=O)Nc2ccc(F)cc2)sc2c1CCN(C)C2	> 11 µM (inactive)
CC1CN(c2nc3ccccc3nc2C(C#N)C(=O)NC2CCCCC2)CC(C)O1 (centres undefined)	> 11 µM (inactive)
COc1ccc(CNC(=O)COC(=O)c2cc(-c3ccc(Cl)s3)nc3ccccc23)cc1	> 11 µM (inactive)
O=C/C(=C\Nc1ccccn1)c1nc2ccccc2o1	> 11 µM (inactive)
Cc1cc(NC(=O)/C(C#N)=C/c2ccc(-c3ccc(SC(F)F)cc3)o2)n(-c2ccccc2)n1	> 11 µM (inactive)

Compound	EC50
C=CCN1C(=O)NC(=O)/C(=C/c2c(CCN(C)C(=O)c3ccccc3)cc3c(c2OC)OCO3)C1=O	> 11 µM (inactive)
COc1ccc(-n2c(C)cc(/C=C3\SC(=S)N(Cc4ccco4)C3=O)c2C)cc1	> 11 µM (inactive)
Cc1ccc(NC(=O)/C(C#N)=C/c2ccc(C)s2)c(C)c1	> 11 µM (inactive)
O=C(O)CCCN1C(=O)/C(=C/c2ccc(-c3nc4ccccc4s3)o2)SC1=S	> 11 µM (inactive)
O=C(O)C1Nc2c(O)cc(Cl)c([N+](=O)[O-])c2C2C=CCC12 (centres undefined)	> 11 µM (inactive)
Nc1cccc2c1C(=O)N(c1ccccc1)C2=O	> 11 µM (inactive)
Cc1ccc(/C=C2/Sc3ccc(C(=O)N4CCN(c5ccccn5)CC4)cc3NC2=O)cc1	> 11 µM (inactive)
COc1ccc2nc3cc(Cl)ccc3c(Nc3cc(CN4CCCC4)c(O)c(CN4CCCC4)c3)c2n1	> 11 µM (inactive)
CN1C[C@H](CO)C=C2c3cccc4[nH]cc(c34)C[C@H]21	> 11 µM (inactive)
Cc1cc(/C=C2\C(=O)NC(=O)N(c3ccccc3F)C2=O)c(C)n1-c1cc(C(=O)O)cc(C(=O)O)c1	> 11 µM (inactive)
CCOc1cc(/C=C2\C(=O)NN(c3ccccc3)C2=O)cc([N+](=O)[O-])c1O	> 11 µM (inactive)
COC(=O)CNc1cccc(C(F)(F)F)c1	> 11 µM (inactive)
COc1ccc(N=Cc2c(O)n(-c3cccc(C)n3)c(=O)c3ccccc23)cc1	> 11 µM (inactive)
COc1ccc(CC(=O)NNC2=Nc3cccc4cccc2c34)cc1	> 11 µM (inactive)
O=C(/C=C/c1ccco1)NC(=S)Nc1ccc(C(=O)O)cc1	> 11 µM (inactive)
COc1ccccc1OCC(=O)N/N=C/c1c(O)ccc2ccccc12	> 11 µM (inactive)
O=c1c(/C=C(\O)c2ccccc2)nc2ccccc2n1-c1ccccc1	> 11 µM (inactive)
O=C1CS/C(=N/N=C/c2cccs2)N1	> 11 µM (inactive)
O=C(CCl)NCCN1C(=O)S/C(=C\c2cccnc2)C1=O	> 11 µM (inactive)
COc1ccc2nc(SCC(=O)Nc3nonc3C)[nH]c2c1	> 11 µM (inactive)
O=C1N=C(N2C=CC(=C3C=CNC=C3)C=C2)/C(=C/N=NC(=O)c2ccccc2O)S1	> 11 µM (inactive)
c1ccc2oc(CCc3nc4ccccc4o3)nc2c1	> 11 µM (inactive)

Reference: PubChem BioAssay AID1959 (Broad Institute, 2009)
